According to patent EP2061765B1, “Serine-threonine protein kinase and PARP modulators” (Senhwa Biosciences, Inc., priority 2006, dated 2008):

Legend:
PanC1 = test: Cell proliferation assay (Alamar Blue); type: cell-based; conditions: Homo sapiens, PANC-1, 96 h, PanC1 cells, four days
Procedure, shortened: (§1)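 Cells plated at 4,000-5,000 per well, then exposed to compound for four days at 37°C, 5% CO2. Alamar Blue added for a further 4 h; fluorescence read at ex 544/em 590 nm. Medium-only wells served as blank, cells without compound as untreated control.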

SK-OV-3 = test: Cell proliferation assay (Alamar Blue); type: cell-based; conditions: Homo sapiens, 96 h, SK-OV-3 cells, four days
Procedure, shortened: as §1

MCF-10A = test: Cell proliferation assay (Alamar Blue); type: cell-based; conditions: Homo sapiens, 96 h, MCF-10A cells, four days
Procedure, shortened: as §1

BxPC3 = test: Cell proliferation assay (Alamar Blue); type: cell-based; conditions: Homo sapiens, BXPC-3, 96 h, BxPC3 cells, four days
Procedure, shortened: as §1

COLO205 = test: Cell proliferation assay (Alamar Blue); type: cell-based; conditions: Homo sapiens, COLO 205, 96 h, COLO205 cells, four days
Procedure, shortened: as §1

H460 = test: Cell proliferation assay (Alamar Blue); type: cell-based; conditions: Homo sapiens, NCI-H460, 96 h, H460 cells, four days
Procedure, shortened: as §1

HCT-116 = test: Cell proliferation assay (Alamar Blue); type: cell-based; conditions: Homo sapiens, 96 h, HCT-116 cells, four days;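 also: fluorescence of unreduced Alamar Blue read roughly 4 h after dye addition, with wells given medium instead of compound serving as controls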
MiaPaCa = test: Cell proliferation assay (Alamar Blue); type: cell-based; conditions: Homo sapiens, MIA PaCa-2, 96 h, MiaPaCa cells, four days
Procedure, shortened: as §1

Hs578T = test: Cell proliferation assay (Alamar Blue); type: cell-based; conditions: Homo sapiens, Hs-578T, 96 h, Hs578T cells, four days
Procedure, shortened: as §1

A375 = test: Cell proliferation assay (Alamar Blue); type: cell-based; conditions: Homo sapiens, A-375, 96 h, A375 cells, four days
Procedure, shortened: as §1

PC3 = test: Cell proliferation assay (Alamar Blue); type: cell-based; conditions: Homo sapiens, PC-3, 96 h, PC3 cells, four days
Procedure, shortened: as §1

H1299 = test: Cell proliferation assay (Alamar Blue); type: cell-based; conditions: Homo sapiens, NCI-H1299, 96 h, H1299 cells, four days
Procedure, shortened: as §1

Jurkat = test: Cell proliferation assay (Alamar Blue); type: cell-based; conditions: Homo sapiens, 96 h, Jurkat cells, four days
Procedure, shortened: as §1

HT29 = test: Cell proliferation assay (Alamar Blue); type: cell-based; conditions: Homo sapiens, HT-29, 96 h, HT29 cells, four days
Procedure, shortened: as §1

K-562 = test: Cell proliferation assay (Alamar Blue); type: cell-based; conditions: Homo sapiens, K562, 96 h, K-562 cells, four days
Raji = test: Cell proliferation assay (Alamar Blue); type: cell-based; conditions: Homo sapiens, 96 h, Raji cells, four days
Procedure, shortened: as §1

LNCaP = test: Cell proliferation assay (Alamar Blue); type: cell-based; conditions: Homo sapiens, 96 h, LNCaP cells, four days
Procedure, shortened: as §1

MDAMB231 = test: Cell proliferation assay (Alamar Blue); type: cell-based; conditions: Homo sapiens, MDA-MB-231, 96 h, MDAMB231 cells, four days
Procedure, shortened: as §1

MCF-7 = test: Cell proliferation assay (Alamar Blue); type: cell-based; conditions: Homo sapiens, MCF7, 96 h, MCF-7 cells, four days
Procedure, shortened: as §1

HL-60 = test: Cell proliferation assay (Alamar Blue); type: cell-based; conditions: Homo sapiens, 96 h, HL-60 cells, four days
Procedure, shortened: as §1

A549 = test: Cell proliferation assay (Alamar Blue); type: cell-based; conditions: Homo sapiens, 96 h, A549 cells, four days
Procedure, shortened: as §1

[1] = Pharmacokinetics after IV and PO dosing
Experimental: The pharmacokinetics properties of drugs were investigated in ICR mice following an intravenous (IV) bolus and oral (PO) doses of drug at 5 mg/kg and 25 mg/kg respectively. Blood samples were collected at predetermined times and the plasma separated. Plasma was separated from the blood samples collected at 5,15 and 30 minutes and 1, 2, 4, 8 and 24 hours post-dose.
Drug levels were quantified by the LC/MS/MS method described below. Noncompartmental pharmacokinetic analysis was applied for intravenous administration. […] The terminal t1/2 and Co were calculated using the last three and the first three data points, respectively
Bioanalysis was performed using a Quattro Micro LC/MS/MS instrument in the MRM detection mode, with an internal standard (IS). Briefly, 15 µL plasma samples were prepared for analysis using protein precipitation with 120 µL of acetonitrile. The supernatants were transferred into a 96 well plate and subjected to LC-MS/MS analysis using a Phenomenex Polar-RP HPLC column. The mobile phases were 10 mM NH4HCO3 in water (Solution-A) and 10 mM NH4HCO3 in methanol (Solution-B). […] Quantitation of the analytes was performed in the batch mode with two bracketing calibration curves according to the bioanalytical sample list

| SMILES | IC50 (PanC1) [µM] | IC50 (SK-OV-3) [µM] | IC50 (BxPC3) [µM] | IC50 (COLO205) [µM] | IC50 (H460) [µM] | IC50 (HCT-116) [µM] | IC50 (MiaPaCa) [µM] | IC50 (A375) [µM] | IC50 (PC3) [µM] | IC50 (H1299) [µM] | IC50 (Jurkat) [µM] | IC50 (HT29) [µM] | IC50 (Hs578T) [µM] | other results |
| --- | --- | --- | --- | --- | --- | --- | --- | --- | --- | --- | --- | --- | --- | --- |
| O=C(O)c1ccc2c(c1)nc(Nc1cc(F)cc(F)c1)c1ncncc12 [drawing 301] | – | – | – | – | – | 4.06 | 0.85 | 2.63 | 7.5 | 6.62 | 2.59 | – | 5.9 | – |
| C#Cc1cccc(Nc2nc3cc(C(=O)O)ccc3c3cncnc23)c1 [drawing 304] | – | – | – | – | – | 5.86 | 0.67 | 4.12 | 3.13 | 1.55 | 1.8 | – | 2.86 | – |
| CNc1ncc2c(n1)c(Nc1ccccc1)nc1cc(C(=O)O)ccc12 [drawing 307] | – | – | – | – | – | 2.99 | 1.09 | 1.92 | 3.14 | 2.42 | 0.73 | – | 1.84 | – |
| O=C(O)c1ccc2c(c1)nc(Nc1ccc(Cl)cc1)c1ccncc12 [drawing 384] | – | – | – | – | – | – | – | – | – | – | – | – | – | IC50 (K-562): 8.65 µM; IC50 (Raji): 5.46 µM; IC50 (LNCaP): 7.39 µM; IC50 (MDAMB231): 3.79 µM; IC50 (MCF-7): 0.76 µM; IC50 (HL-60): 3.74 µM; IC50 (A549): 9.74 µM |
| C#Cc1cccc(Nc2nc3cc(C(=O)O)ccc3c3cncnc23)c1 [drawing 547] | – | – | – | – | – | – | – | – | – | – | – | – | – | F(0-Inf) ([1]; ICR mice, PO 24.5 mg/kg): 31.1%; F([…]) ([1]; ICR mice, PO 24.5 mg/kg): 26.5%; Kel ([1]; ICR mice, PO 24.5 mg/kg): 0.0594 h⁻¹; AUC(0-t) at 8 h ([1]; mouse, plasma, po, 24.5 mg/kg): 6000 ng·h/mL |
| O=C(O)c1ccc2c(c1)nc(Nc1cccc(F)c1)c1ncncc12 [drawing 302] | – | – | – | – | – | 7.1 | 3.36 | 5.11 | 4.71 | 7.24 | 1.89 | – | 3.43 | – |
| O=C(O)c1ccc2c(c1)nc(Nc1cc(F)cc(F)c1)c1ncncc12 [drawing 377] | – | – | – | – | – | – | – | – | – | – | – | – | – | IC50 (K-562): 2.41 µM; IC50 (Raji): 8.47 µM; IC50 (LNCaP): 1.83 µM; IC50 (MDAMB231): 3.1 µM; IC50 (MCF-7): 2.02 µM; IC50 (HL-60): 1.85 µM; IC50 (A549): 24.6 µM |
| O=C(O)c1ccc2c(c1)nc(Nc1cccc(Cl)c1)c1ccncc12 [drawing 299] | – | – | – | – | – | 4.02 | 2.74 | 3.95 | 1.51 | 3.08 | 2.37 | – | 0.67 | – |

Now from value to molecule, other results behind:

| IC50 (PanC1) [µM] | IC50 (SK-OV-3) [µM] | IC50 (BxPC3) [µM] | IC50 (COLO205) [µM] | IC50 (H460) [µM] | IC50 (HCT-116) [µM] | IC50 (MiaPaCa) [µM] | IC50 (A375) [µM] | IC50 (PC3) [µM] | IC50 (H1299) [µM] | IC50 (Jurkat) [µM] | IC50 (HT29) [µM] | SMILES | IC50 (Hs578T) [µM] | other results |
| --- | --- | --- | --- | --- | --- | --- | --- | --- | --- | --- | --- | --- | --- | --- |
| > 50 | 20.7 | 10.8 | 8.92 | 37.5 | – | – | – | – | – | – | – | O=C(O)c1ccc2c(c1)nc(Nc1ccccc1)c1ccncc12 [drawing 443] | – | IC50 (MCF-10A): 3.84 µM |
| 25.8 | 15.3 | 6.38 | 1.57 | 9.1 | – | – | – | – | – | – | 26.9 | O=C(O)c1ccc2c(c1)nc(Nc1ccc(Cl)cc1)c1ccncc12 [drawing 456] | – | – |
| – | – | – | – | – | 4.33 | 1.35 | 5.4 | 10.1 | 8.91 | 2.41 | – | O=C(O)c1ccc2c(c1)nc(Nc1cc(F)cc(F)c1)c1ccncc12 [drawing 311] | 9.09 | – |
| 18.7 | 8.97 | 1.48 | 8.62 | 4.1 | – | – | – | – | – | – | 13 | O=C(O)c1ccc2c(c1)nc(Nc1cccc(Cl)c1)c1ncncc12 [drawing 451] | – | – |
| – | – | – | – | – | 13.3 | 7.51 | 18.4 | 15.4 | 6.84 | 23.7 | – | O=C(O)c1ccc2c(c1)nc(Nc1ccccc1)c1ccncc12 [drawing 286] | 14.9 | – |
| – | – | – | – | – | – | – | – | – | – | – | 12.8 | O=C(O)c1ccc2c(c1)nc(Nc1cccc(F)c1)c1ccncc12 [drawing 447] | – | – |
| 4.07 | 23.4 | 3.7 | 4.44 | 13.8 | – | – | – | – | – | – | 45.5 | C#Cc1cccc(Nc2nc3cc(C(=O)O)ccc3c3cnccc23)c1 [drawing 457] | – | IC50 (MCF-10A): 0.73 µM |
| 24 | 10.1 | 1.63 | 3.62 | 7.53 | – | – | – | – | – | – | 16.6 | O=C(O)c1ccc2c(c1)nc(Nc1cc(F)cc(F)c1)c1ccncc12 [drawing 459] | – | – |
